Assays:
mTOR = mTOR (Homo sapiens, UniProt P42345); assay: Enzyme - mTOR Kinase Assay (Echo); type: biochemical; conditions: recombinant FLAG-tagged mTOR (1362-2549); AlphaScreen; ATP 20 μM;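 also: enzyme expressed in HEK293 cells, 2 h incubation at room temperature, read-out is phosphorylation of a biotinylated peptide substrate detected with an anti-phospho p70 S6 Kinase (T389) antibody, inhibition lowers signal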
ATR = biological target: T1, ATR (Homo sapiens, UniProt Q13535); assay: Enzyme Assay - ATR (Test (a)); type: biochemical; conditions: ATR immunoprecipitated from HeLa nuclear extract; 3 μM ATP; average of individual tests; read-out: ATR average IC50;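 also: kinase activity of bead-bound ATR toward a GST-p53 N-terminal fragment substrate, 1 h at 37 °C, read by chemiluminescence, with inhibitor-free wells as control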
T1 construct: obtained from HeLa nuclear extract (CIL Biotech, Mons, Belgium) by immunoprecipitation with rabbit polyclonal antiserum raised to amino acids 400-480 of ATR; host or cells: HeLa nuclear extract
T1 sequence (Q13535 whole entry, the tested form may be a part): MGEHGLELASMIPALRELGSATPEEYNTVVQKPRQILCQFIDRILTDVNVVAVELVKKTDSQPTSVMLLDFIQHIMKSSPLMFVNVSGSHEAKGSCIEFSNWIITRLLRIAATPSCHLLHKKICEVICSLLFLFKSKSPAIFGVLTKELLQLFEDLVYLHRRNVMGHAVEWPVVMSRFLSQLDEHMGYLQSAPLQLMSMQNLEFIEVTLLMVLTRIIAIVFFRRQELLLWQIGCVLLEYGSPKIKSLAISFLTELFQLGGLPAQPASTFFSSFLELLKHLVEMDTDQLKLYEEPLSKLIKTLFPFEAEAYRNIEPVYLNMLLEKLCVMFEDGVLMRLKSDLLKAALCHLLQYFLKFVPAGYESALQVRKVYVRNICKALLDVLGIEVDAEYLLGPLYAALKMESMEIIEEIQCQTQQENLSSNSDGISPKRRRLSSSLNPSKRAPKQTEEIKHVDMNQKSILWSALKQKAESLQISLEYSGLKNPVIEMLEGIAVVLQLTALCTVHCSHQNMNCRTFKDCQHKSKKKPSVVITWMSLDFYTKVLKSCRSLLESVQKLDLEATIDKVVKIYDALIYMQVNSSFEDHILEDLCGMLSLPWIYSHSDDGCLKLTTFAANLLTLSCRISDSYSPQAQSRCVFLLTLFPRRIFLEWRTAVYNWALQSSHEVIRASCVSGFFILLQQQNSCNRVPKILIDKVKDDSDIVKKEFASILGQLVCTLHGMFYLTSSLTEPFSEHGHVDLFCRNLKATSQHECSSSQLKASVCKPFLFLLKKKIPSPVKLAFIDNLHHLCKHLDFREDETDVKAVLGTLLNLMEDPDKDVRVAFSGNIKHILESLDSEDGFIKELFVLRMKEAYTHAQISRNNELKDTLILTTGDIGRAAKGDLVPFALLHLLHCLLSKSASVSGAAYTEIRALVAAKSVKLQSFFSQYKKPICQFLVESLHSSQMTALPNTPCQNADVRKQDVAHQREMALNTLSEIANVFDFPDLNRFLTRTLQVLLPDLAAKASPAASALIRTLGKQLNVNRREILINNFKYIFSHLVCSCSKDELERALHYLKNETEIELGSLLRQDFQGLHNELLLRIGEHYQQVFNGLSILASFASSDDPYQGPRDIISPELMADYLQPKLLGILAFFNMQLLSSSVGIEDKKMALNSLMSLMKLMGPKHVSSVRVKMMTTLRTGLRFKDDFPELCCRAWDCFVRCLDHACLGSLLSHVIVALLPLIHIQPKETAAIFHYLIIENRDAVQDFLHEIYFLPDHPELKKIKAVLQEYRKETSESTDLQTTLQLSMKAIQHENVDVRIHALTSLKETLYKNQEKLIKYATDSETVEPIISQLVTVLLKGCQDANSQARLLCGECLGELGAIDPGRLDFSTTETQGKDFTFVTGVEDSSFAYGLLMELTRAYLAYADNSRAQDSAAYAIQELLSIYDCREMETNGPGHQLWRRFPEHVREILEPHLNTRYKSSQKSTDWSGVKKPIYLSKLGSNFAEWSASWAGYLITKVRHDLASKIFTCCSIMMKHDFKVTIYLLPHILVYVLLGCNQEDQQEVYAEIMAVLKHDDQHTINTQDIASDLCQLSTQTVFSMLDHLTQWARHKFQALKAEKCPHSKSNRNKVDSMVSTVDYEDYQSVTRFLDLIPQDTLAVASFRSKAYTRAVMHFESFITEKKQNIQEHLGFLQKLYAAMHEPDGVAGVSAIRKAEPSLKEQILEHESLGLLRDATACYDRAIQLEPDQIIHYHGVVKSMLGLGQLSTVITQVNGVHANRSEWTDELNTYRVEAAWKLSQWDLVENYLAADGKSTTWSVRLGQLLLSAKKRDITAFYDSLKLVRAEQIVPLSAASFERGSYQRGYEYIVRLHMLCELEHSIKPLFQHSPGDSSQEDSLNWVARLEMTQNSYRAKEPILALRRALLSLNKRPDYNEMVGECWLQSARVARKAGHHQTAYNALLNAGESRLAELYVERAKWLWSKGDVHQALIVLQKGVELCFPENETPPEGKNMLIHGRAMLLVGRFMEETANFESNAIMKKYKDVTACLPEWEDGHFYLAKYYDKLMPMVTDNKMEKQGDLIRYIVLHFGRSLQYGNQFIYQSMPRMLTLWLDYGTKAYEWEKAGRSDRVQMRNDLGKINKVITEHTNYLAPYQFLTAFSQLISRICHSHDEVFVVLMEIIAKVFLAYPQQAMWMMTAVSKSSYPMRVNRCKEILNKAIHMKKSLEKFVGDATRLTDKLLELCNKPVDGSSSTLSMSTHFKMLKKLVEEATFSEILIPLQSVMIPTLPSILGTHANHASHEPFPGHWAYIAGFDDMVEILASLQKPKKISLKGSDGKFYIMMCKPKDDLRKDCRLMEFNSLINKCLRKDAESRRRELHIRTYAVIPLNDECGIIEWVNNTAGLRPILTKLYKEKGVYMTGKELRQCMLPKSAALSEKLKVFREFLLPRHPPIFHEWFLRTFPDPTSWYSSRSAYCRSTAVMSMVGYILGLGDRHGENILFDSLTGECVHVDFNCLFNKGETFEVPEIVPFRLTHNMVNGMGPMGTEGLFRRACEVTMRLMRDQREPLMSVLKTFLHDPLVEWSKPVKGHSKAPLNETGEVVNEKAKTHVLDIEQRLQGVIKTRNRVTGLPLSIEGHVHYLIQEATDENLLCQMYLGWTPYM
T1 sequence (Q8WXE1 whole entry partner, the tested form may be a part): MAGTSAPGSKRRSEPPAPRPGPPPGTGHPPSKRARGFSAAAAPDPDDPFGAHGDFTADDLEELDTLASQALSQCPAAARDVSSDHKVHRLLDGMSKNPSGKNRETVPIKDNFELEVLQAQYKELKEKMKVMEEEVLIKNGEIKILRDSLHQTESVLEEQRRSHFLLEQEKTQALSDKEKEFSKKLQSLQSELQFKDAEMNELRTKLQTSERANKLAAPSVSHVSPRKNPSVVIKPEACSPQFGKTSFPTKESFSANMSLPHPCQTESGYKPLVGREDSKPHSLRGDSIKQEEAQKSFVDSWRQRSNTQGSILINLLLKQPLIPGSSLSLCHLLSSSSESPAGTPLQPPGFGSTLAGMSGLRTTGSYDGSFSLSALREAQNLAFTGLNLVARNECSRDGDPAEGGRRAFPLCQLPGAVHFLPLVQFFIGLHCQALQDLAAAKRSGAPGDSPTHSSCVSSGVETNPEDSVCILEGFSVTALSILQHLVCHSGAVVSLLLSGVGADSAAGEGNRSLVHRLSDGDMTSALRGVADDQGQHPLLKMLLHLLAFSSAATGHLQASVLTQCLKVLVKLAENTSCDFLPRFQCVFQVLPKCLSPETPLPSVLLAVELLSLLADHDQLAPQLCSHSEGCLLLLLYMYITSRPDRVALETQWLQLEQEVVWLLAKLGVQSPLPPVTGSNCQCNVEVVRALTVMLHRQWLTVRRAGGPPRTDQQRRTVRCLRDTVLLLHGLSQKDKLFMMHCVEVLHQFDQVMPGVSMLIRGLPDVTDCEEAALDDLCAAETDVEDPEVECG

Sequence of mTOR (P42345 1362-2549): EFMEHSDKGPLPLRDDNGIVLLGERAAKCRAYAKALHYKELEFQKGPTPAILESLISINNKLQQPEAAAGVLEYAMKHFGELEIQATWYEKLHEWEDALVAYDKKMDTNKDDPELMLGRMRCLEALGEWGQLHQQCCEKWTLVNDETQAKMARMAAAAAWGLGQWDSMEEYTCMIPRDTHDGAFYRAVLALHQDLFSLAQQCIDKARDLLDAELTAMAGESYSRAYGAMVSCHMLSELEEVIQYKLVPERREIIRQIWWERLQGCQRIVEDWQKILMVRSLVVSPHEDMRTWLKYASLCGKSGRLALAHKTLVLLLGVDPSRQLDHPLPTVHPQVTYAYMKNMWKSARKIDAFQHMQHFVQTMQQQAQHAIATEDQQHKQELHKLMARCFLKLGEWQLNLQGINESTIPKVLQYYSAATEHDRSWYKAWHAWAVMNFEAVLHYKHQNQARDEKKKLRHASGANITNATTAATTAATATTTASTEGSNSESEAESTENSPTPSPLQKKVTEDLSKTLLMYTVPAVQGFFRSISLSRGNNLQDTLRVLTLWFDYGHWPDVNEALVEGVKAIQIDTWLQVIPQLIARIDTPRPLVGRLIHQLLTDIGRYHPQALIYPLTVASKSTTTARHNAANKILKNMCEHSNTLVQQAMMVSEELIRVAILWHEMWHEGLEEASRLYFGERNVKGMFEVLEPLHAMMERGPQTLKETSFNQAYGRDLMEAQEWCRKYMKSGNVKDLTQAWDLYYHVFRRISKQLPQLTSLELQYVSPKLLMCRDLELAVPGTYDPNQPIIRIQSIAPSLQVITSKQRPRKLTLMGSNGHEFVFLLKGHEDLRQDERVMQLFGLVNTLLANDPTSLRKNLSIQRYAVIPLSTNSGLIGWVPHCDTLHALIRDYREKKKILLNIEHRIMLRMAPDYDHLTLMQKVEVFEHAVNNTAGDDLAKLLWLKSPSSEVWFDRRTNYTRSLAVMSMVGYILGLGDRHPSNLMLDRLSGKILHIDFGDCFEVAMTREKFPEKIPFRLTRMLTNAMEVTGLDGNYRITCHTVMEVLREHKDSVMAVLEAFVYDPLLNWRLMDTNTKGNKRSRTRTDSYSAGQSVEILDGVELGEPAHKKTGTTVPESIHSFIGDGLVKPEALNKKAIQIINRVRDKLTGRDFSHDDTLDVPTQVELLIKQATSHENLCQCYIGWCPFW

SMILES: CS(=O)(=O)C1(c2cc(N3CCOCC3)nc(-c3cccc4[nH]ccc34)n2)CCNCC1 [Example 1.08, 4-{4-[4-(Methylsulfonyl)piperidin-4-yl]-6-morpholin-4-ylpyrimidin-2-yl}-1H-indole]
- IC50 (mTOR): 231 nM
- IC50 (ATR): 9.44 nM

SMILES: C[C@@H]1COCCN1c1cc(C2(S(C)(=O)=O)CCOCC2)nc(-c2cc(C#N)cc3[nH]ccc23)n1 [Example 3.14, 4-{4-[(3R)-3-methylmorphohn-4-yl]-6-[4-(methylsulfonyl)tetrahydro-2H-pyran-4-yl]pyrimidin-2-yl}-1H-indole-6-carbonitrile]
- IC50 (mTOR): 692 nM
- IC50 (ATR): 14.2 nM

SMILES: CC(C)S(=O)(=O)C1(c2cc(N3CCOC[C@H]3C)nc(-c3cccc4[nH]ccc34)n2)CC1 [Example 3.23, 4-(4-{1-[(1-Methylethyl)sulfonyl]cyclopropyl}-6-[(3R)-3-methylmorpholin-4-yl]pyrimidin-2-yl)-1H-indole]
- IC50 (mTOR): 89.1 nM
- IC50 (ATR): 2.47 nM

SMILES: CS(=O)(=O)C1(c2cc(N3CCOCC3)nc(-c3cccc4[nH]ccc34)n2)CC1 [Example 1.01, 4-{4-[1-(Methylsulfonyl)cyclopropyl]-6-morpholin-4-ylpyrimidin-2-yl}-1H-indole]
- IC50 (mTOR): 179 nM

SMILES: C[C@@H]1COCCN1c1cc(C2(S(C)(=O)=O)CCOCC2)nc(-c2cc(F)cc3[nH]ccc23)n1 [Example 3.13, 6-fluoro-4-{4-[(3R)-3-methylmorpholin-4-yl]-6-[4-(methylsulfonyl)tetrahydro-2H-pyran-4-yl]pyrimidin-2-yl}-1H-indole]
- IC50 (mTOR): 250 nM
- IC50 (ATR): 1.53 nM

SMILES: C[C@@H]1COC[C@H](C)N1c1cc(C2(S(C)(=O)=O)CC2)nc(-c2cccc3[nH]ccc23)n1 [Example 4.01, 4-{4-[(3S,5R)-3,5-Dimethylmorpholin-4-yl]-6-[1-(methylsulfonyl)cyclopropyl]pyrimidin-2-yl}-1H-indole]
- IC50 (ATR): 20.2 nM

SMILES: CC(C)S(=O)(=O)C1(c2cc(N3CCOCC3)nc(-c3cccc4[nH]ccc34)n2)CC1 [Example 1.11, 4-(4-{1-[(1-methylethyl)sulfonyl]cyclopropyl}-6-morpholin-4-ylpyrimidin-2-yl)-1H-indole]
- IC50 (mTOR): 122 nM
- IC50 (ATR): 13.2 nM

SMILES: CC(C)S(=O)(=O)C1(c2cc(N3CCOC[C@H]3C)nc(-c3cccc4[nH]ccc34)n2)CCNCC1 [Example 3.25, 4-(4-{4-[(1-Methylethyl)sulfonyl]piperidin-4-yl}-6-[(3R)-3-methylmorpholin-4-yl]pyrimidin-2-yl)-1H-indole]
- IC50 (mTOR): 4240 nM
- IC50 (ATR): 20.6 nM

SMILES: CS(=O)(=O)C1(c2cc(N3CCOCC3)nc(-c3cc(Cl)cc4[nH]ccc34)n2)CC1 [Example 1.06, 6-chloro-4-{4-[1-(methylsulfonyl)cyclopropyl]-6-morpholin-4-ylpyrimidin-2-yl}-1H-indole]
- IC50 (mTOR): 71.2 nM
- IC50 (ATR): 15.8 nM

SMILES: CCS(=O)(=O)C1(c2cc(N3CCOCC3)nc(-c3cccc4[nH]ccc34)n2)CC1 [Example 1.10, 4-{4-[1-(ethylsulfonyl)cyclopropyl]-6-morpholin-4-ylpyrimidin-2-yl}-1H-indole]
- IC50 (mTOR): 95.8 nM
- IC50 (ATR): 15 nM

SMILES: Cc1cc2c(-c3nc(N4CCOC[C@H]4C)cc(C4(S(C)(=O)=O)CC4)n3)cccc2[nH]1 [Example 3.03, 2-Methyl-4-{4-[(3R)-3-methylmorpholin-4-yl]-6-[1-(methylsulfonyl)cyclopropyl]pyrimidin-2-yl}-1H-indole]
- IC50 (mTOR): 46.3 nM
- IC50 (ATR): 5.46 nM

SMILES: O=S(=O)(C1CC1)C1(c2cc(N3CCOCC3)nc(-c3cccc4[nH]ccc34)n2)CC1 [Example 1.12, 4-{4-[1-(cyclopropylsulfonyl)cyclopropyl]-6-morpholin-4-ylpyrimidin-2-yl}-1H-indole]
- IC50 (mTOR): > 90000 nM
- IC50 (ATR): 32.1 nM

SMILES: CC(C)S(=O)(=O)C1(c2cc(N3CCOC[C@H]3C)nc(-c3cccc4[nH]ccc34)n2)CCOCC1 [Example 3.24, 4-(4-{4-[(1-Methylethyl)sulfonyl]tetrahydro-2H-pyran-4-yl}-6-[(3R)-3-methylmorpholin-4-yl]pyrimidin-2-yl)-1H-indole]
- IC50 (mTOR): 6150 nM
- IC50 (ATR): 261 nM

SMILES: C[C@@H]1COCCN1c1cc(C2(S(C)(=O)=O)CCNCC2)nc(-c2cccc3[nH]ccc23)n1 [Example 3.15, 4-{4-[(3R)-3-Methylmorpholin-4-yl]-6-[4-(methylsulfonyl)piperidin-4-yl]pyrimidin-2-yl}-1H-indole]
- IC50 (mTOR): 980 nM
- IC50 (ATR): 2.55 nM

SMILES: C[C@@H]1COCCN1c1cc(C2(S(C)(=O)=O)CCOCC2)nc(-c2cccc3[nH]ccc23)n1 [Example 3.08, 4-{4-[(3R)-3-Methylmorpholin-4-yl]-6-[4-(methylsulfonyl)tetrahydro-2H-pyran-4-yl]pyrimidin-2-yl}-1H-indole]
- IC50 (mTOR): 225 nM
- IC50 (ATR): 2.32 nM

SMILES: CCS(=O)(=O)C1(c2cc(N3CCOC[C@H]3C)nc(-c3cccc4[nH]ccc34)n2)CCNCC1 [Example 3.22, 4-{4-[4-(Ethylsulfonyl)piperidin-4-yl]-6-[(3R)-3-methylmorpholin-4-yl]pyrimidin-2-yl}-1H-indole]
- IC50 (mTOR): 556 nM
- IC50 (ATR): 8.19 nM

SMILES: CS(=O)(=O)C1(c2cc(N3CCOCC3)nc(-c3cc(C#N)cc4[nH]ccc34)n2)CC1 [Example 1.05, 4-{4-[1-(methylsulfonyl)cyclopropyl]-6-morpholin-4-ylpyrimidin-2-yl}-1H-indole-6-carbonitrile]
- IC50 (mTOR): 326 nM
- IC50 (ATR): 65.9 nM

SMILES: COc1cc(-c2nc(N3CCOC[C@H]3C)cc(C3(S(C)(=O)=O)CCOCC3)n2)c2cc[nH]c2c1 [Example 3.11, 6-Methoxy-4-{4-[(3R)-3-methylmorpholin-4-yl]-6-[4-(methylsulfonyl)tetrahydro-2H-pyran-4-yl]pyrimidin-2-yl}-1H-indole]
- IC50 (mTOR): 77.9 nM
- IC50 (ATR): 1.58 nM

SMILES: C[C@@H]1COCCN1c1cc(C2(S(=O)(=O)C3CC3)CCOCC2)nc(-c2cccc3[nH]ccc23)n1 [Example 3.19, 4-{4-[4-(Cyclopropylsulfonyl)tetrahydro-2H-pyran-4-yl]-6-[(3R)-3-methylmorpholin-4-yl]pyrimidin-2-yl}-1H-indole]
- IC50 (mTOR): 2820 nM
- IC50 (ATR): 97.6 nM

SMILES: C[C@H]1COCCN1c1cc(C2(S(C)(=O)=O)CCCC2)nc(-c2cccc3[nH]ccc23)n1 [Example 2.03, 4-{4-[(3S)-3-Methylmorpholin-4-yl]-6-[1-(methylsulfonyl)cyclopentyl]pyrimidin-2-yl}-1H-indole]
- IC50 (mTOR): 99 nM
- IC50 (ATR): 6.21 nM

SMILES: C[C@H]1COCCN1c1cc(C2(S(=O)(=O)C3CC3)CCOCC2)nc(-c2cccc3[nH]ccc23)n1 [Example 2.02, 4-{4-[4-(Cyclopropylsulfonyl)tetrahydro-2H-pyran-4-yl]-6-[(3S)-3-methylmorpholin-4-yl]pyrimidin-2-yl}-1H-indole]
- IC50 (mTOR): 467 nM
- IC50 (ATR): 376 nM

SMILES: Cc1cc(-c2nc(N3CCOCC3)cc(C3(S(C)(=O)=O)CC3)n2)c2cc[nH]c2c1 [Example 1.02, 6-Methyl-4-{4-[1-(methylsulfonyl)cyclopropyl]-6-morpholin-4-ylpyrimidin-2-yl}-1H-indole]
- IC50 (mTOR): 110 nM
- IC50 (ATR): 7.67 nM

SMILES: C[C@@H]1COCCN1c1cc(C2(S(C)(=O)=O)CC2)nc(-c2cc(C#N)cc3[nH]ccc23)n1 [Example 3.04, 4-{4-[(3R)-3-Methylmorpholin-4-yl]-6-[1-(methylsulfonyl)cyclopropyl]pyrimidin-2-yl}-1H-indole-6-carbonitrile]
- IC50 (mTOR): 207 nM
- IC50 (ATR): 35.5 nM

SMILES: C[C@@H]1COCCN1c1cc(C2(S(C)(=O)=O)CC2)nc(-c2cc(Cl)cc3[nH]ccc23)n1 [Example 3.05, 6-chloro-4-{4-[(3R)-3-methylmorpholin-4-yl}-6-[1-(methylsulfonyl)cyclopropyl]pyrimidin-2-yl}-1H-indole]
- IC50 (mTOR): 54.6 nM
- IC50 (ATR): 4.23 nM

SMILES: Cc1cc(-c2nc(N3CCOC[C@H]3C)cc(C3(S(C)(=O)=O)CC3)n2)c2cc[nH]c2c1 [Example 3.02, 6-Methyl-4-{4-[(3R)-3-methylmorpholin-4-yl]-6-[1-(methylsulfonyl)cyclopropyl]pyrimidin-2-yl}-1H-indole]
- IC50 (mTOR): 97.1 nM
- IC50 (ATR): 6.67 nM

SMILES: CCS(=O)(=O)C1(c2cc(N3CCOC[C@H]3C)nc(-c3cccc4[nH]ccc34)n2)CCOCC1 [Example 3.21, 4-{4-[4-(Ethylsulfonyl)tetrahydro-2H-pyran-4-yl]-6-[(3R)-3-methylmorpholin-4-yl]pyrimidin-2-yl}-1H-indole]
- IC50 (mTOR): 686 nM
- IC50 (ATR): 6.89 nM

SMILES: COc1cc(-c2nc(N3CCOC[C@H]3C)cc(C3(S(C)(=O)=O)CC3)n2)c2cc[nH]c2c1 [Example 3.07, 6-methoxy-4-{4-[(3R)-3-methylmorphohn-4-yl]-6-[1-(methylsulfonyl)cyclopropyl]pyrimidin-2-yl}-1H-indole]
- IC50 (mTOR): 24.1 nM
- IC50 (ATR): 12.4 nM

SMILES: C[C@@H]1COCCN1c1cc(C2(S(C)(=O)=O)CCOCC2)nc(-c2cc(Cl)cc3[nH]ccc23)n1 [Example 3.12]
- IC50 (mTOR): 420 nM
- IC50 (ATR): 2.5 nM

SMILES: C[C@@H]1COCCN1c1cc(C2(S(C)(=O)=O)CC2)nc(-c2cc(F)cc3[nH]ccc23)n1 [Example 3.06]
- IC50 (mTOR): 38 nM
- IC50 (ATR): 3.45 nM

SMILES: C[C@@H]1COCCN1c1cc(C2(S(C)(=O)=O)CCC2)nc(-c2cccc3[nH]ccc23)n1 [Example 3.16, 4-{4-[(3R)-3-Methylmorpholin-4-yl]-6-[1-(methylsulfonyl)cyclobutyl]pyrimidin-2-yl}-1H-indole]
- IC50 (mTOR): 85.8 nM
- IC50 (ATR): 1.99 nM

SMILES: CS(=O)(=O)C1(c2cc(N3CCOCC3)nc(-c3cccc4[nH]ccc34)n2)CCOCC1 [Example 1.09, 4-{4-[4-(Methylsulfonyl)tetrahydro-2H-pyran-4-yl]-6-morpholin-4-ylpyrimidin-2-yl}-1H-indole]
- IC50 (ATR): 3.74 nM

SMILES: CS(=O)(=O)C1(c2cc(N3CC4CCC(C3)O4)nc(-c3cccc4[nH]ccc34)n2)CC1 [Example 5.01, 4-{4-[1-(Methylsulfonyl)cyclopropyl]-6-(8-oxa-3-azabicyclo[3.2.1]oct-3-yl)pyrimidin-2-yl}-1H-indole]
- IC50 (mTOR): 21 nM

From patent publication US20110053923A1, “CHEMICAL COMPOUNDS 610” (AstraZeneca, priority 2008, published 2011)
